Assay results taken from publication PMC6364417, “Kinase inhibitor library screening identifies synergistic drug combinations effective in sensitive and resistant melanoma cells” (Journal of Experimental & Clinical Cancer Research : CR, 2019).

Assays:
Test in all cases: Kinase inhibitor library screening, PrestoBlue cell viability, 1 or 10 μM, 72 h
IGR37 cells (parental) = test system: IGR37 cells (parental)
[1] = test system: A375-GP cells (Dabrafenib-resistant)
[2] = test system: 501Mel-XP cells (Vemurafenib-resistant)
[3] = test system: IGR37-XP cells (Vemurafenib-resistant)
[4] = test system: A375-XP cells (Vemurafenib-resistant)
A375 cells (parental) = test system: A375 cells (parental)
[5] = test system: 501Mel-GP cells (Dabrafenib-resistant)
501Mel cells (parental) = test system: 501Mel cells (parental)
Method in brief: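 Parental cells and Vemurafenib-resistant (XP) or Dabrafenib-resistant (GP) derivatives were treated with library kinase inhibitors at 1 and 10 μM for 72 h. Viability measured by PrestoBlue and expressed as % of untreated cells, at least in duplicate.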

[6] = test system: IGR37-GP cells (Dabrafenib-resistant)

CCOc1cc2ncc(C#N)c(Nc3ccc(F)c(Cl)c3)c2cc1NC(=O)/C=C/CN(C)C [Pelitinib (EKB-569)]
cell viability, IGR37 Parental, 1μΜ (IGR37 cells (parental); IGR37 Parental, 1μΜ, 72 h, in %): 99.8 | cell viability, IGR37 Parental, 10μΜ (IGR37 cells (parental); IGR37 Parental, 10μΜ, 72 h, in %): 97.0 | cell viability, A375 GP, 1μΜ ([1]; A375 GP, 1μΜ, 72 h, in %): 98.8 | cell viability, A375 GP, 10μΜ ([1]; A375 GP, 10μΜ, 72 h, in %): 88.7 | cell viability, 501Mel XP, 10μΜ ([2]; 501Mel XP, 10μΜ, 72 h, in %): 91.9 | cell viability, IGR37 XP, 10μΜ ([3]; IGR37 XP, 10μΜ, 72 h): 77.5% | cell viability, IGR37 XP, 1μΜ ([3]; IGR37 XP, 1μΜ, 72 h, in %): 97.8 | cell viability, A375 XP, 1μΜ ([4]; A375 XP, 1μΜ, 72 h, in %): 104.6 | cell viability, A375 XP, 10μΜ ([4]; A375 XP, 10μΜ, 72 h, in %): 96.9 | cell viability, A375 Parental, 1μΜ (A375 cells (parental); A375 Parental, 1μΜ, 72 h, in %): 103.3 | cell viability, A375 Parental, 10μΜ (A375 cells (parental); A375 Parental, 10μΜ, 72 h, in %): 79.2 | cell viability, 501Mel GP, 1μΜ ([5]; 501Mel GP, 1μΜ, 72 h, in %): 102.6 | cell viability, 501Mel GP, 10μΜ ([5]; 501Mel GP, 10μΜ, 72 h, in %): 92.4 | cell viability, 501Mel Parental, 1μΜ (501Mel cells (parental); 501Mel Parental, 1μΜ, 72 h, in %): 102.9 | cell viability, 501Mel Parental, 10μΜ (501Mel cells (parental); 501Mel Parental, 10μΜ, 72 h, in %): 89.9 | cell viability, IGR37 GP, 10μΜ ([6]; IGR37 GP, 10μΜ, 72 h): 92.3% | cell viability, IGR37 GP, 1μΜ ([6]; IGR37 GP, 1μΜ, 72 h, in %): 97.5

Oc1cc(O)cc(/C=C/c2ccc(O)c(O)c2)c1 [Piceatannol]
cell viability (kinase inhibitor library screening) (IGR37 cells (parental); IGR37 Parental, 1μΜ, in %): 98.6 | cell viability (kinase inhibitor library screening) (IGR37 cells (parental); IGR37 Parental, 10μΜ, in %): 86.6 | cell viability (kinase inhibitor library screening) ([1]; A375 GP, 1μΜ, in %): 93.0 | cell viability (kinase inhibitor library screening) ([1]; A375 GP, 10μΜ, in %): 80.7 | cell viability (kinase inhibitor library screening) ([2]; 501Mel XP, 1μΜ, in %): 96.8 | cell viability (kinase inhibitor library screening) ([2]; 501Mel XP, 10μΜ, in %): 81.1 | cell viability (kinase inhibitor library screening) ([3]; IGR37 XP, 1μΜ, in %): 92.0 | cell viability (kinase inhibitor library screening) ([3]; IGR37 XP, 10μΜ, in %): 82.4 | cell viability (kinase inhibitor library screening) ([4]; A375 XP, 1μΜ, in %): 98.5 | cell viability (kinase inhibitor library screening) ([4]; A375 XP, 10μΜ, in %): 89.0 | cell viability (kinase inhibitor library screening) (A375 cells (parental); A375 Parental, 1μΜ, in %): 98.9 | cell viability (kinase inhibitor library screening) (A375 cells (parental); A375 Parental, 10μΜ, in %): 76.1 | cell viability (kinase inhibitor library screening) ([5]; 501Mel GP, 1μΜ, in %): 95.8 | cell viability (kinase inhibitor library screening) ([5]; 501Mel GP, 10μΜ, in %): 80.4 | cell viability (kinase inhibitor library screening) (501Mel cells (parental); 501Mel Parental, 1μΜ, in %): 98.4 | cell viability (kinase inhibitor library screening) (501Mel cells (parental); 501Mel Parental, 10μΜ, in %): 84.8 | cell viability (kinase inhibitor library screening) ([6]; IGR37 GP, 1μΜ, in %): 91.5 | cell viability (kinase inhibitor library screening) ([6]; IGR37 GP, 10μΜ, in %): 85.8

CC(C)(C)c1cc(NC(=O)Nc2ccc(-c3cn4c(n3)sc3cc(OCCN5CCOCC5)ccc34)cc2)no1 [Quizartinib (AC220)]
viability at 1 µM (IGR37 cells (parental); Homo sapiens, IGR-37, 72 h, read-out: cell viability, IGR37 Parental, 1μΜ): 97.3% | viability at 10 µM (IGR37 cells (parental); Homo sapiens, IGR-37, 72 h, read-out: cell viability, IGR37 Parental, 10μΜ): 102% | viability at 1 µM ([1]; Homo sapiens, A-375, 72 h, read-out: cell viability, A375 GP, 1μΜ): 99.4% | viability at 10 µM ([1]; Homo sapiens, A-375, 72 h, read-out: cell viability, A375 GP, 10μΜ): 88.8% | viability at 1 µM ([2]; Homo sapiens, 72 h, read-out: cell viability, 501Mel XP, 1μΜ): 94.6% | viability at 10 µM ([2]; Homo sapiens, 72 h, read-out: cell viability, 501Mel XP, 10μΜ): 80.5% | viability at 1 µM ([3]; Homo sapiens, IGR-37, 72 h, read-out: cell viability, IGR37 XP, 1μΜ): 43.9% | viability at 10 µM ([3]; Homo sapiens, IGR-37, 72 h, read-out: cell viability, IGR37 XP, 10μΜ): 7.2% | viability at 1 µM ([4]; Homo sapiens, A-375, 72 h, read-out: cell viability, A375 XP, 1μΜ): 108% | viability at 10 µM ([4]; Homo sapiens, A-375, 72 h, read-out: cell viability, A375 XP, 10μΜ): 96.3% | viability at 1 µM (A375 cells (parental); Homo sapiens, A-375, 72 h, read-out: cell viability, A375 Parental, 1μΜ): 104% | viability at 10 µM (A375 cells (parental); Homo sapiens, A-375, 72 h, read-out: cell viability, A375 Parental, 10μΜ): 96.3% | viability at 1 µM ([5]; Homo sapiens, 72 h, read-out: cell viability, 501Mel GP, 1μΜ): 109% | viability at 10 µM ([5]; Homo sapiens, 72 h, read-out: cell viability, 501Mel GP, 10μΜ): 93% | viability at 1 µM (501Mel cells (parental); Homo sapiens, 72 h, read-out: cell viability, 501Mel Parental, 1μΜ): 95.1% | viability at 10 µM (501Mel cells (parental); Homo sapiens, 72 h, read-out: cell viability, 501Mel Parental, 10μΜ): 89.6% | viability at 1 µM ([6]; Homo sapiens, IGR-37, 72 h, read-out: cell viability, IGR37 GP, 1μΜ): 67.8% | viability at 10 µM ([6]; Homo sapiens, IGR-37, 72 h, read-out: cell viability, IGR37 GP, 10μΜ): 28.8%

COc1cc(Nc2ncc(F)c(Nc3ccc4c(n3)NC(=O)C(C)(C)O4)n2)cc(OC)c1OC [R406(free base)]
cell viability (kinase inhibitor library screening) (IGR37 cells (parental); IGR37 Parental, 1μΜ, in %): 97.4 | cell viability (kinase inhibitor library screening) (IGR37 cells (parental); IGR37 Parental, 10μΜ, in %): 86.8 | cell viability (kinase inhibitor library screening) ([1]; A375 GP, 10μΜ, in %): 44.5 | cell viability (kinase inhibitor library screening) ([2]; 501Mel XP, 1μΜ, in %): 77.6 | cell viability (kinase inhibitor library screening) ([2]; 501Mel XP, 10μΜ, in %): 29.6 | cell viability (kinase inhibitor library screening) ([3]; IGR37 XP, 1μΜ, in %): 92.0 | cell viability (kinase inhibitor library screening) ([3]; IGR37 XP, 10μΜ, in %): 20.0 | cell viability (kinase inhibitor library screening) ([4]; A375 XP, 1μΜ, in %): 103.9 | cell viability (kinase inhibitor library screening) ([4]; A375 XP, 10μΜ, in %): 63.6 | cell viability (kinase inhibitor library screening) (A375 cells (parental); A375 Parental, 1μΜ, in %): 100.1 | cell viability (kinase inhibitor library screening) (A375 cells (parental); A375 Parental, 10μΜ, in %): 50.6 | cell viability (kinase inhibitor library screening) ([5]; 501Mel GP, 1μΜ, in %): 93.8 | cell viability (kinase inhibitor library screening) ([5]; 501Mel GP, 10μΜ, in %): 48.0 | cell viability (kinase inhibitor library screening) (501Mel cells (parental); 501Mel Parental, 10μΜ, in %): 57.6 | cell viability (kinase inhibitor library screening) ([6]; IGR37 GP, 1μΜ, in %): 84.7 | cell viability (kinase inhibitor library screening) ([6]; IGR37 GP, 10μΜ, in %): 45.4
